In patent US20220127262A1, “CRYSTALLINE FORM OF A CDK INHIBITOR” (Pfizer Inc., priority 2019, published 2022):

Experiments:
Type in all cases: physicochemical
[1] = Solid-state chemical stability (long term and accelerated storage), total impurities by HPLC
Procedure: The chemical stability of PF-06873600 anhydrous free base (Form 1) was investigated at long term storage conditions (25° C./60% RH) for an extended time period and under accelerated stability conditions (40° C./75% RH) for a shorter period. Stability testing was conducted at 25° C./60% RH for 24 months (long term conditions) and at 40° C./75% RH for 6 months (accelerated conditions) and evaluated for appearance and purity by HPLC.
(§1) Stability samples of drug substance were packaged in double low-density polyethylene (LDPE) bags and desiccant within high-density polyethylene (HDPE) drum. Photostability samples were stored in a quartz Petri dish with a quartz lid.

[2] = Photostability study under ICH conditions, light source option 2; conditions: for Total impurities: ICH photostability
Excerpt: A photostability study was run under ICH conditions using light source option 2 ICH conditions.
as §1

[3] = Water sorption and desorption, automated vapor sorption analyzer
Procedure: Water sorption and desorption studies were conducted on automated vapor sorption analyzer (TA instruments Q5000 SA). The microbalance was calibrated using a 100 mg standard weight. The relative humidity sensor was calibrated at 5.0, 11.3, 32.8, 52.8, 75.3, and 84.3% RH (25° C.) using saturated salt solutions. Approximately 30 mg of the powder sample was placed in the quartz sample holder and dried at ≤3% relative humidity (RH) at 25° C. The attainment of equilibrium was assumed when the weight change of the sample was <0.001 wt % in 5 min or by a maximum equilibration time of 120 minutes. […] The attainment of equilibrium was again assumed when the weight change of the sample was <0.001 wt % in 5 min or by a maximum equilibration time of 120 minutes. The weight gain at each of the % RH steps is based on the weight after the initial drying step. The data were analyzed using Universal Analysis software V4.5A.

C[C@@]1(O)CCC[C@H]1n1c(=O)c(C(F)F)cc2cnc(NC3CCN(S(C)(=O)=O)CC3)nc21 [PF-06873600 free base (Form 1), 6-(difluoromethyl)-8-[(1R,2R)-2-hydroxy-2-methylcyclopentyl]-2-{[1-(methylsulfonyl)piperidin-4-yl]amino}-pyrido[2,3-d]pyrimidin-7(8H)-one]
Total impurities ([1]; 25° C./60% RH, 3 mos.): 0.49%
Total impurities ([1]; 25° C./60% RH, 6 mos.): 0.48%
Total impurities ([1]; 25° C./60% RH, 12 mos.): 0.51%
Total impurities ([1]; 25° C./60% RH, 24 mos.): 0.59%
Total impurities ([1]; 25° C./60% RH, Initial): 0.5%
Total impurities ([1]; 40° C./75% RH, 3 mos.): 0.47%
Total impurities ([1]; 40° C./75% RH, 6 mos.): 0.47%
Total impurities ([1]; 40° C./75% RH, Initial): 0.5%
Total impurities ([2]; light source option 2, 8 days): 0.64%
Total impurities ([2]; light source option 2, Initial): 0.58%
Appearance after photostability exposure ([2]; samples directly exposed to UV/Fluorescent conditions): change in appearance from an off-white powder to a pale-colored powder
Water Content, Desorption ([3]; 25° C., 10% RH): −0.12 % w/w
Water Content, Sorption ([3]; 25° C., 10% RH): 0.00 % w/w
Water Content, Desorption ([3]; 25° C., 20% RH): −0.1 % w/w
Water Content, Sorption ([3]; 25° C., 20% RH): 0.02 % w/w
Water Content, Desorption ([3]; 25° C., 30% RH): −0.07 % w/w
Water Content, Sorption ([3]; 25° C., 30% RH): 0.04 % w/w
Water Content, Desorption ([3]; 25° C., 40% RH): −0.06 % w/w
Water Content, Sorption ([3]; 25° C., 40% RH): 0.06 % w/w
Water Content, Desorption ([3]; 25° C., 50% RH): −0.04 % w/w
Water Content, Sorption ([3]; 25° C., 50% RH): 0.07 % w/w
Water Content, Desorption ([3]; 25° C., 60% RH): −0.03 % w/w
Water Content, Sorption ([3]; 25° C., 60% RH): 0.07 % w/w
Water Content, Desorption ([3]; 25° C., 70% RH): −0.01 % w/w
Water Content, Sorption ([3]; 25° C., 70% RH): 0.08 % w/w
Water Content, Desorption ([3]; 25° C., 80% RH): 0.02 % w/w
Water Content, Sorption ([3]; 25° C., 80% RH): 0.08 % w/w
Water Content, Desorption ([3]; 25° C., 90% RH): 0.04 % w/w
Water Content, Sorption ([3]; 25° C., 90% RH): 0.04 % w/w
Change in solid form ([3]; after the water sorption study): no change in solid form
Weight gain ([3]; up to 90% RH): no significant weight gain
Hygroscopicity ([3]; water sorption study, 25° C.): not hygroscopic
